From patent US6706293B1, “Pharmaceutical composition capable of regulating the expression of adhesion molecules” (Especialidades Farmaceuticas Centrum, S.A., priority 1999, dated 2004)

Experiments:
CD11a = assay: In vitro expression of adhesion molecules in peripheral blood mononuclear cells (flow cytometry); type: cell-based, human; conditions: PBMNc of 10 healthy individuals, 48 hours culture; PHA 10 μg/ml, Anapsos 150 μg/ml; CONTROL 17%
Procedure: (§1) Peripheral blood was extracted from 10 healthy individuals and the mononuclear cells was separated via Fycoll-Hypaque density gradient centrifugation. The cells was cultivated in plane bottom microtiter plates, at a titer of 1 million/ml for 48 hours in a CO2 incubator, with phytohaemagglutinin (PHA) at concentrations of 0, 0.5, 2, 5 and 10 μg/ml and/or with Anapsos at concentrations between 0 to 5000 μg/ml. Finalized the culturing, the lymphocytes was analyzed by flow cytometry. The expression of determined adhesion molecules (CD11a, CD11b, CD18, CD54) was studied in relation to the different conditions of stimuli. En parallel to the culture as described above, a culture for 5 days was made under the same conditions of stimuli as above. Tritium thymidine was added 16 hours before finalizing the culture. Terminated the culture, the cells was washed with the Harvester and flashing liquid was incorporated into the cells. The cellular incorporation of tritium thymidine was measured via a β counter. During the culturing, the cells were photographed via an inverted microscope.

CD11b = assay: as above; type: cell-based, human; conditions: PBMNc of 10 healthy individuals, 48 hours culture; PHA 10 μg/ml, Anapsos 150 μg/ml; CONTROL 20%
Procedure: as §1

CD18 = assay: as above; type: cell-based, human; conditions: PBMNc of 10 healthy individuals, 48 hours culture; PHA 10 μg/ml, Anapsos 150 μg/ml; CONTROL 20%
Procedure: as §1

CD54 = assay: as above; type: cell-based, human; conditions: PBMNc of 10 healthy individuals, 48 hours culture; PHA 10 μg/ml, Anapsos 150 μg/ml; CONTROL 2%
Procedure: as §1

Female WISTAR rats = assay: Anti-inflammatory activity in acute and chronic phase in rats (adjuvant + carrageenin foot volume, method of Mizushima); type: in vivo, rat; conditions: oral, Phenylbutazone 80 mg/Kg, extract 1.25 g per kg
Procedure: A study of the anti-inflammatory activity has been made in acute and chronic phase in rats. The method used was as described by Mizushima. The reference medicament (Phenylbutizene, dose 80 mg/Kg) and the products of the study (dose equivalent to 1.25 g extract per kg weight of animal) were dissolved in a solution of 1% of CMC (carboxymethylcellulose) in distillated water (w/v) and Tween 80: distillated water (0.2:3.3-v/v), in order to be administrated orally. Six days after inoculation, by intradermal route of 0.1 mL of the complete adjuvant Freund (DIFCO) in the basal part of the tail, was injected 0.1 mL of a suspension of carrageenin type IV 2% (w/v) at the aponeurosis of the left back foot. The volume of the foot of the animal was measured, using a water pletismometer, immediately before the carrageenin injection (basal volume) and afterwards at 3, 5, and 7 hours (acute phase of the inflammation) and at 24, 48, 72, and 96 hours (chronic phase of inflammation). The products of the study, the phenylbutazone, and the carrier were administrated, orally and in portions of 6 animals, 1 hour before the carrageenin injection and at 24, 48 and 72 hours. The percentage of inhibition of the inflammation was calculated by comparing the increase of the volume of the animal foot in respect of its basal volume, for each group of animals and in relation to the control group. The control group was given the carrier of phenylbutazone and the products of the study. The statistical significance was evaluated via the T Student test.

Compound	Expression, in vitro, of CD11a (CD11a)	Expression, in vitro, of CD11b (CD11b)	Expression, in vitro, of CD18 (CD18)	Expression, in vitro, of CD54 (CD54)	% INHIBITION OF THE INFLAMMATION 3 h (Female WISTAR rats; 3 h after carrageenin (acute phase))	% INHIBITION OF THE INFLAMMATION 5 h (Female WISTAR rats; 5 h after carrageenin (acute phase))	% INHIBITION OF THE INFLAMMATION 7 h (Female WISTAR rats; 7 h after carrageenin (acute phase))	% INHIBITION OF THE INFLAMMATION 24 h (Female WISTAR rats; 24 h after carrageenin (chronic phase))	% INHIBITION OF THE INFLAMMATION 48 h (Female WISTAR rats; 48 h after carrageenin (chronic phase))	% INHIBITION OF THE INFLAMMATION 72 h (Female WISTAR rats; 72 h after carrageenin (chronic phase))	% INHIBITION OF THE INFLAMMATION 96 h (Female WISTAR rats; 96 h after carrageenin (chronic phase))
phytohaemagglutinin [PHA]	22%	35%	27%	9%	–	–	–	–	–	–	–
CCCCC1C(=O)N(c2ccccc2)N(c2ccccc2)C1=O [Phenylbutazone]	–	–	–	–	41%	27%	21%	36%	60%	56%	40%
